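Dose response: 5 concentrations. Exposure: 48 h. Format: 96-well plates. Endpoint: linear interpolation; highest concentration if not reached. GI50 marks 50% less growth.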 The source made the active and inactive calls. No stated cut-off is given here; in the data, active = GI50 up to about 1.1 µM and inactive = higher.
What was measured:
Assay in all cases: inhibition of tumour cell growth, NCI panel, 48 h
786-0 = test system: 786-0
CCRF-CEM = test system: CCRF-CEM
COLO 205 = test system: COLO 205
HCT-15 = test system: HCT-15
HOP-62 = test system: HOP-62
HT-29 = test system: HT-29
K562 = test system: K562
LOX IMVI = test system: LOX IMVI
NCI-H522 = test system: NCI-H522
OVCAR-3 = test system: OVCAR-3
RPMI-8226 = test system: RPMI-8226
RXF 393 = test system: RXF 393
SF-539 = test system: SF-539
SNB-75 = test system: SNB-75
SW-620 = test system: SW-620
U-251 = test system: U-251
SNB-19 = test system: SNB-19
HL-60 = test system: HL-60

Row | Compound | GI50 (786-0) | GI50 (CCRF-CEM) | GI50 (COLO 205) | GI50 (HCT-15) | GI50 (HOP-62) | GI50 (HT-29) | GI50 (K562) | GI50 (LOX IMVI) | GI50 (NCI-H522) | GI50 (OVCAR-3) | GI50 (RPMI-8226) | GI50 (RXF 393) | GI50 (SF-539) | GI50 (SNB-75) | GI50 (SW-620) | GI50 (U-251) | GI50 (SNB-19) | GI50 (HL-60)
1 | COc1ccc(NC(=O)CC(=O)N/N=C/c2ccc(N(CCC#N)S(C)(=O)=O)cc2)cc1 | > 100 µM (inactive) | > 100 µM (inactive) | > 100 µM (inactive) | > 100 µM | > 100 µM (inactive) | > 100 µM (inactive) | > 100 µM (inactive) | > 100 µM (inactive) | > 100 µM (inactive) | > 100 µM (inactive) | > 100 µM (inactive) | > 100 µM (inactive) | > 100 µM (inactive) | > 100 µM (inactive) | > 100 µM (inactive) | > 100 µM (inactive) |  | 
2 | COC(=O)C1=C(C)N(NC(=O)Nc2ccccc2)C2(N)N(NC(=O)Nc3ccccc3)C(C)=C(C(=O)OC)C12C(=O)OC (stereo not given) | 66.7 µM (inactive) | 35.2 µM (inactive) | 34.7 µM (inactive) | 76.4 µM |  | 65.2 µM (inactive) | 51.9 µM (inactive) | 72.6 µM (inactive) | 32.3 µM (inactive) | 54.2 µM (inactive) | 26.8 µM (inactive) | 75.9 µM (inactive) |  | 36.1 µM (inactive) | 63.4 µM (inactive) | 43.3 µM (inactive) |  | 
3 | Cc1ccccc1-c1c(N)nc(NC#N)nc1C(=O)Nc1ccccc1 | > 100 µM (inactive) | > 100 µM (inactive) | > 100 µM (inactive) | > 100 µM | > 100 µM (inactive) | > 100 µM (inactive) | > 100 µM (inactive) | > 100 µM (inactive) |  | > 100 µM (inactive) | > 100 µM (inactive) | > 100 µM (inactive) | > 100 µM (inactive) | 76.4 µM (inactive) | > 100 µM (inactive) | > 100 µM (inactive) | > 100 µM (inactive) | 
4 | O=C1c2ccccc2C(=O)N1CCN(CCN1C(=O)c2ccccc2C1=O)Cn1cccn1 | > 100 µM (inactive) | 32.7 µM (inactive) | > 100 µM (inactive) | > 100 µM | > 100 µM (inactive) |  | 33.4 µM (inactive) | > 100 µM (inactive) | > 100 µM (inactive) | > 100 µM (inactive) | 29.2 µM (inactive) | > 100 µM (inactive) |  | 87.3 µM (inactive) | 41.8 µM (inactive) | > 100 µM (inactive) | > 100 µM (inactive) | 27.4 µM (inactive)
5 | C=CCCC(C)N(C(=O)OC(C)(C)C)S(=O)(=O)c1ccc(C)cc1 (stereo not given) | > 100 µM (inactive) |  | > 100 µM (inactive) | > 100 µM | > 100 µM (inactive) | > 100 µM (inactive) | > 100 µM (inactive) | > 100 µM (inactive) | > 100 µM (inactive) | > 100 µM (inactive) | > 100 µM (inactive) |  | > 100 µM (inactive) | > 100 µM (inactive) | > 100 µM (inactive) | > 100 µM (inactive) | > 100 µM (inactive) | > 100 µM (inactive)
6 | CC1OC(=O)C(O)=C1O (stereo not given) | > 100 µM (inactive) | > 100 µM (inactive) | > 100 µM (inactive) | > 100 µM | > 100 µM (inactive) | > 100 µM (inactive) | > 100 µM (inactive) | > 100 µM (inactive) | > 100 µM (inactive) | > 100 µM (inactive) | > 100 µM (inactive) | > 100 µM (inactive) | > 100 µM (inactive) | > 100 µM (inactive) | > 100 µM (inactive) | > 100 µM (inactive) | > 100 µM (inactive) | 
7 | CCOC(=O)/C(=C/c1ccc(N(C)C)cc1)N(CC)CC | > 100 µM (inactive) | 27 µM (inactive) | > 100 µM (inactive) | 40.3 µM | > 100 µM (inactive) |  | 22.5 µM (inactive) | 27.7 µM (inactive) | 34.3 µM (inactive) | 24.5 µM (inactive) | 26.1 µM (inactive) |  | > 100 µM (inactive) |  | 44 µM (inactive) | > 100 µM (inactive) | > 100 µM (inactive) | 27.2 µM (inactive)
